Measured values reported in publication PMC10812672, “Short Antimicrobial Peptide Derived from the Venom Gland Transcriptome of Pamphobeteus verdolaga Increases Gentamicin Susceptibility of Multidrug-Resistant Klebsiella pneumoniae” (Antibiotics, 2023).
Where two headings read alike, the source gives them in different places. Ends that are not written are not given here.

Key:
[1] = test system: multidrug-resistant (MDR) strain of K. pneumoniae, clinical isolate; assay: microbe, parasite or virus in culture; format: cell-based, Klebsiella pneumoniae
Method: A multidrug-resistant (MDR) strain of K. pneumoniae was identified and isolated from a tertiary-level hospital in Medellin, Colombia, using the VITEK-2 system (bioMérieux, Marcy-l’Étoile, France). The MDR strain was evaluated against several antibiotics at concentrations of 1.56–100 μM. […] In contrast, the strain was susceptible to doxycycline (Supplementary Figure S7g) and chloramphenicol (Supplementary Figure S7h), with MICs of 50 μM and 100 µM, respectively (Table 3). […] All of P. verdolaga’s AMPs were evaluated against the clinical isolate at concentrations of 1.56–200 µM (Supplementary Figure S8). […] A growth inhibition kinetic assay was conducted. […] All of P. verdolaga’s peptides at 100 μM induced morphological changes in the MDR K. pneumoniae, indicating membrane interactions, even though no significant inhibition was observed (Supplementary Figure S9).
The evaluation of the antimicrobial activity of the peptides was conducted using the CLSI’s broth microdilution method for bacterial susceptibility testing. For the screening phase, peptides were evaluated at a single 30 μM concentration, in triplicate and in three independent assays, against the E. coli ATCC® 8739, E. coli ATCC® 25922, S. aureus ATCC® 6538, or S. aureus ATCC® 29213 reference USP and CLSI strains. For the determination of MIC, MBC, or IC50, peptides or antibiotics were evaluated in concentrations between 1.56–200 µM. These evaluations were conducted in triplicate and in three independent assays, against the E. coli ATCC® 25922, S. aureus ATCC® 29213, E. faecalis ATCC® 49532, P. aeruginosa ATCC® 9027, and K. pneumoniae ATCC® BAA-1705, or the clinically isolated MDR strain. In detail, 1 mL of a glycerol stock solution of the ATCC® or clinically isolated bacterial strain was added to 9 mL of Mueller-Hinton Broth and incubated for 18 h, 180 rpm and 37 °C (Incubator 1000, Heidolph Instruments, Schwabach, Germany). After the incubation, 1 mL of the previous solution was transferred to a new recipient containing 9 mL of fresh Mueller-Hinton broth and incubated for 4 h, 180 rpm and 37 °C (Incubator 1000, Heidolph Instruments, Schwabach, Germany). During the second incubation, the peptides or the antibiotics were dissolved in PBS pH 7.20 in concentrations between 19.53–2500 µM (MC5 Micro Balance, Sartorius AG, Göttingen, Germany). An amount of 10 µL of either peptide or antibiotic was dispensed in triplicate in 96-well flat bottom culture plates, along with 10 µL of PBS (Negative activity control), BTM-P1 (Positive activity control), or 10 µL of Mueller-Hinton broth (Blank); then, 110 µL of Mueller-Hinton broth was poured in all wells. Following this, the bacteria were suspended in Mueller-Hinton broth up to a concentration of approximately 1.50 × 10^8 CFU/mL, as measured by optical density at 600 nm between 0.06 to 0.11 (0.5 McFarland standard), in a Multiskan SkyHigh spectrophotometer (ThermoFisher Scientific, Waltham, MA, USA). Amounts of 5 µL of the 1.50 × 10^8 CFU/mL suspension were added to each well (except for the blank) for a final well concentration of approximately 6 × 10^6 CFU/mL. The plate was incubated for 24 h at 37 °C (BE 500, Memmert GmbH, Büchenbach, Germany) and optical density was measured at 600 nm in a Multiskan SkyHigh spectrophotometer (ThermoFisher Scientific, Waltham, MI, USA). Following the measurement of optical density, plates were visually inspected to determine the MIC. Subsequently, 100 µL of the concentration associated to the MIC and 100 µL of the next higher concentration were added to Petri dishes containing Mueller-Hinton Agar. The dishes were then incubated for 24 h at 37 °C (BE 500, Memmert GmbH, Büchenbach, Germany). After incubation, the Petri dishes were visually inspected, and the MBC was determined in the absence of growth. IC50 values were interpolated from regressions with correlation values above 0.70. […]

[2] = test system: MDR K. pneumoniae; assay: Isobologram analysis and FICI, PvAMP66 with gentamicin; format: cell-based, Klebsiella pneumoniae
Method: Given the intermediate resistance to gentamicin, an isobologram analysis was used as a proof-of-concept to evaluate the interaction between PvAMP66 and the antibiotic. The growth inhibition of the clinical isolate was measured using peptide concentrations of 0.10–100 µM, and gentamicin concentrations of 0.10–50 µM (Supplementary Figure S10). Combined IC50 values were calculated and plotted in a graph with a secant line representing the IC50 values for PvAMP66 and gentamicin when used alone (Figure 2a). […] The concentrations adjacent to the aforementioned data point were evaluated. […] Additionally, a Fractional Inhibitory Concentration Index (FICI) of 0.59 was obtained.
For the isobologram analysis concentrations, ranges of 1.56 µM to 200 µM of the peptide and 0.07 µM to 100 µM of the gentamicin were used. The experiments were conducted in triplicate and repeated in two independent assays. The IC50 for each combination was determined using either logarithmic or linear regression. Then, when achieving 50% growth inhibition, the concentrations of the peptide and gentamicin were recorded and used to create an isobologram graph with a ‘peptide concentration’ vs. ‘gentamicin concentration’ plot. […] The fractional inhibitory concentration index was calculated as follows: FICI=Combined MICAntibiotic/MICAntibiotic+Combined MICPeptide/MICPeptide

[3] = test system: E. coli ATCC® 25922; format: cell-based, Escherichia coli; conditions: for MIC: 1.56–200 µM, visual inspection, triplicate, three independent assays; for MIC / MBC: 24 h 37 °C; for MBC: plating on Mueller-Hinton agar, absence of growth
Method: (§1) The nine AMPs identified in the initial screening were evaluated at concentrations between 1.56–200 µM, against E. coli ATCC® 25922, S. aureus ATCC® 29213, E. faecalis ATCC® 49532, P. aeruginosa ATCC® 9027, and K. pneumoniae ATCC® BAA-1705 (Supplementary Figures S2–S6). […] Only PvAMP66 and PvAMP172 reached the MBC for S. aureus at 50 µM and 100 µM, respectively (Table 2).
(§2) The evaluation of the antimicrobial activity of the peptides was conducted using the CLSI’s broth microdilution method for bacterial susceptibility testing. For the screening phase, peptides were evaluated at a single 30 μM concentration, in triplicate and in three independent assays, against the E. coli ATCC® 8739, E. coli ATCC® 25922, S. aureus ATCC® 6538, or S. aureus ATCC® 29213 reference USP and CLSI strains. For the determination of MIC, MBC, or IC50, peptides or antibiotics were evaluated in concentrations between 1.56–200 µM. These evaluations were conducted in triplicate and in three independent assays, against the E. coli ATCC® 25922, S. aureus ATCC® 29213, E. faecalis ATCC® 49532, P. aeruginosa ATCC® 9027, and K. pneumoniae ATCC® BAA-1705, or the clinically isolated MDR strain. In detail, 1 mL of a glycerol stock solution of the ATCC® or clinically isolated bacterial strain was added to 9 mL of Mueller-Hinton Broth and incubated for 18 h, 180 rpm and 37 °C (Incubator 1000, Heidolph Instruments, Schwabach, Germany). After the incubation, 1 mL of the previous solution was transferred to a new recipient containing 9 mL of fresh Mueller-Hinton broth and incubated for 4 h, 180 rpm and 37 °C (Incubator 1000, Heidolph Instruments, Schwabach, Germany). During the second incubation, the peptides or the antibiotics were dissolved in PBS pH 7.20 in concentrations between 19.53–2500 µM (MC5 Micro Balance, Sartorius AG, Göttingen, Germany). An amount of 10 µL of either peptide or antibiotic was dispensed in triplicate in 96-well flat bottom culture plates, along with 10 µL of PBS (Negative activity control), BTM-P1 (Positive activity control), or 10 µL of Mueller-Hinton broth (Blank); then, 110 µL of Mueller-Hinton broth was poured in all wells. Following this, the bacteria were suspended in Mueller-Hinton broth up to a concentration of approximately 1.50 × 10^8 CFU/mL, as measured by optical density at 600 nm between 0.06 to 0.11 (0.5 McFarland standard), in a Multiskan SkyHigh spectrophotometer (ThermoFisher Scientific, Waltham, MA, USA). Amounts of 5 µL of the 1.50 × 10^8 CFU/mL suspension were added to each well (except for the blank) for a final well concentration of approximately 6 × 10^6 CFU/mL. The plate was incubated for 24 h at 37 °C (BE 500, Memmert GmbH, Büchenbach, Germany) and optical density was measured at 600 nm in a Multiskan SkyHigh spectrophotometer (ThermoFisher Scientific, Waltham, MI, USA). Following the measurement of optical density, plates were visually inspected to determine the MIC. Subsequently, 100 µL of the concentration associated to the MIC and 100 µL of the next higher concentration were added to Petri dishes containing Mueller-Hinton Agar. The dishes were then incubated for 24 h at 37 °C (BE 500, Memmert GmbH, Büchenbach, Germany). After incubation, the Petri dishes were visually inspected, and the MBC was determined in the absence of growth. IC50 values were interpolated from regressions with correlation values above 0.70. Growth inhibition percentages were calculated as follows: Growth inhibition %=1−AbsPEPTIDE or ANTIBIOTIC−Median AbsBLANK/Median AbsPBS−Median AbsBLANK×100

[4] = test system: P. aeruginosa ATCC® 9027; format: cell-based, Pseudomonas aeruginosa; conditions: for MIC: 1.56–200 µM, 24 h 37 °C, visual inspection, triplicate, three independent assays; for IC50: growth inhibition OD600, 95% confidence interval in parentheses; for MBC: plating on Mueller-Hinton agar, absence of growth
Method: as §1, §2

[5] = test system: S. aureus ATCC® 29213; format: cell-based, Staphylococcus aureus; conditions: CLSI broth microdilution, Mueller-Hinton broth, peptide 30 µM, ~6 × 10^6 CFU/mL, 24 h 37 °C, OD600; triplicate, three independent assays; NA = no activity
Method: (§3) Activity screening was conducted using the broth microdilution method at a fixed peptide concentration of 30 µM against E. coli ATCC® 8739 and 25922, as well as S. aureus ATCC® 6538 and 29213. The bacterial density used for screening was approximately 6 × 10^6 CFU/mL [30]. Peptide activity measurements were conducted in terms of the growth inhibition percentage. No dose-response curves were generated during the screening phase as a resource optimization strategy in the initial activity evaluation. […] For S. aureus ATCC® 6538 and S. aureus ATCC® 29213, growth inhibition ranged from 0% to 140% and 0% to 98%, respectively (Table 1).
as §2

[6] = test system: S. aureus ATCC® 6538; format: cell-based, Staphylococcus aureus; conditions: CLSI broth microdilution, Mueller-Hinton broth, peptide 30 µM, ~6 × 10^6 CFU/mL, 24 h 37 °C, OD600; triplicate, three independent assays; NA = no activity
Method: as §3, §2

[7] = test system: S. aureus ATCC® 29213; format: cell-based, Staphylococcus aureus; conditions: for MIC: 1.56–200 µM, 24 h 37 °C, visual inspection, triplicate, three independent assays; for IC50: growth inhibition OD600, 95% confidence interval in parentheses
Method: as §1, §2

[8] = test system: E. coli ATCC® 25922; format: cell-based, Escherichia coli; conditions: CLSI broth microdilution, Mueller-Hinton broth, peptide 30 µM, ~6 × 10^6 CFU/mL, 24 h 37 °C, OD600; triplicate, three independent assays; NA = no activity
Method: as §3, §2

[9] = test system: E. coli ATCC® 8739; format: cell-based, Escherichia coli; conditions: CLSI broth microdilution, Mueller-Hinton broth, peptide 30 µM, ~6 × 10^6 CFU/mL, 24 h 37 °C, OD600; triplicate, three independent assays; NA = no activity
Method: as §3, §2

[10] = growth inhibition OD600, interpolated from regression, 95% confidence interval in parentheses, read-out: IC50

`CNC(C)C1CCC(N)C(OC2C(N)CC(N)C(OC3OCC(C)(O)C(NC)C3O)C2O)O1` (centres unmarked) [Gentamicin, gentamicin] was tested, and the IC50 ([1]; Klebsiella pneumoniae) was 33.4 µM, the MIC ([1]; Klebsiella pneumoniae, MDR K. pneumoniae clinical isolate) was 9.31 µg/mL and the “Classification at 10^6 CFU/mL” value ([1]; MDR K. pneumoniae clinical isolate, CLSI classification) was “Intermediate resistant”. For the same molecule, the “MIC” value ([1]; MDR K. pneumoniae clinical isolate, peptides 1.56–200 µM, antibiotics 1.56–100 µM, 24 h 37 °C) was 50.00 µM, the IC50 ([2]; Klebsiella pneumoniae, with PvAMP66 9.85 µM, read-out: combined IC50 for gentamicin) was 3.12 µM and the “combined MIC, gentamicin” value ([2]; with 12.50 µM PvAMP66) was 4.70 µM.

Work on IIKKIWK-NH2 [PvAMP32] yielded an MIC [3] of 100 µM, an IC50 [3, 10] of 94.7 µM and an MBC [3] of 100 µM. For the same molecule, the MIC [4] was 100 µM, the IC50 [4] was 124 µM and the MBC [4] was 100 µM. The “S. aureus ATCC® 29213 (Inhibition %)” value [5] was 33.17 ± 8.46 %, the “S. aureus ATCC® 6538 (Inhibition %)” value [6] was 43.62 ± 4.90 % and the MIC [7] was 50 µM. For the same molecule, the IC50 [7] was 108 µM, the “E. coli ATCC® 25922 (Inhibition %)” value [8] was 21.19 ± 3.82 % and the “E. coli ATCC® 8739 (Inhibition %)” value [9] was 30.73 ± 5.21 %.

“CRKLCFRNRCLTYCRGR-NH2 (disulfide (positions not given here)) [PvAMP172, predicted P. verdolaga AMP]” showed an MIC [3] of 50 µM, an IC50 [3, 10] of 42.9 µM and an MBC [3] of 50 µM. For the same molecule, the MIC [4] was 50 µM, the IC50 [4] was 48.4 µM and the MBC [4] was 50 µM. The MIC [7] was 100 µM, the MBC ([7]; plating on Mueller-Hinton agar, absence of growth) was 100 µM and the “E. coli ATCC® 25922 (Inhibition %)” value [8] was 47.43 ± 2.76 %. For the same molecule, the “E. coli ATCC® 8739 (Inhibition %)” value [9] was 64.78 ± 5.46 %.

Molecule “QCRKLCFRNRCLTYCRGR-NH2 (disulfide (positions not given here)) [PvAMP177, predicted P. verdolaga AMP]” has an MIC [3] of 25 µM, an IC50 [3, 10] of 25.3 µM and an MBC [3] of 50 µM. It also gave an IC50 ([3]; same result in µg/mL) of 6.64 µg/mL, an MIC [4] of 50 µM and an IC50 [4] of 25.9 µM. The MBC [4] was 50 µM, the IC50 [7] was 138 µM and the “E. coli ATCC® 25922 (Inhibition %)” value [8] was 56.76 ± 3.64 %. The “E. coli ATCC® 8739 (Inhibition %)” value [9] was 93.07 ± 7.11 %.
